“And” between values parts separate entries of the source, which are not always exact repeats. Identical values can stand only once. Inconclusive results and toxic doses are left out.
Tested on: BDF1 mice, P388 leukemia ip, median survival T/C
Test: NCI In Vivo Anticancer Drug Screen. Data for tumor model P388 Leukemia (intraperitoneal) in B6D2F1 (BDF1) mice
Conditions: endpoint: median survival time, higher = longer survival
In short: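 Each value expresses how treatment altered survival: treated-mouse outcome over vehicle-mouse outcome, both groups bearing the transplanted tumour.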

[1] = dose: 12.5 mg/kg/injection, schedule: Q01DX009 (ip), vehicle: saline
[2] = dose: 25.0 mg/kg/injection, schedule: Q01DX009 (ip), vehicle: saline
[3] = dose: 50.0 mg/kg/injection, schedule: Q01DX009 (ip), vehicle: saline
[4] = dose: 50.0 mg/kg/injection, schedule: Q01DX009 (ip), vehicle: saline with Tween-80
[5] = dose: 100.0 mg/kg/injection, schedule: Q01DX009 (ip), vehicle: saline with Tween-80

O=C(Nc1ccc(CCNC2=NCCN2)cc1)c1ccc(C(=O)Nc2ccc(CCNC3=NCCN3)cc2)cc1
T/C (dose: 1.0 mg/kg/injection, schedule: Q01DX009 (ip), vehicle: saline): 106 % of control
T/C (dose: 2.0 mg/kg/injection, schedule: Q01DX009 (ip), vehicle: saline): 106 % of control
T/C (dose: 8.2 mg/kg/injection, schedule: Q01DX009 (ip), vehicle: saline): 199 % of control
T/C [1]: 226 % of control and 254 % of control
T/C (dose: 18.0 mg/kg/injection, schedule: Q01DX009 (ip), vehicle: saline): 226 % of control
T/C [2]: 156 % of control
T/C [3]: 122 % of control

COC(=O)C(C(=O)OC)=C1CS(=O)(=O)C1
T/C (dose: 100.0 mg/kg/injection, schedule: Q04DX002 (ip), vehicle: saline with Tween-80): 94 % of control
T/C (dose: 200.0 mg/kg/injection, schedule: Q04DX002 (ip), vehicle: saline with Tween-80): 101 % of control
T/C (dose: 400.0 mg/kg/injection, schedule: Q04DX002 (ip), vehicle: saline with Tween-80): 102 % of control

CC(C)C(=O)Nc1ccc(Cl)cc1
T/C (dose: 100.0 mg/kg/injection, schedule: Q01DX001 (ip), vehicle: saline with Tween-80): 100 % of control
T/C (dose: 200.0 mg/kg/injection, schedule: Q01DX001 (ip), vehicle: saline with Tween-80): 100 % of control
T/C (dose: 400.0 mg/kg/injection, schedule: Q01DX001 (ip), vehicle: saline with Tween-80): 100 % of control

CC(Br)C(=O)c1ccc(OCc2ccccc2)cc1 (centres undefined)
T/C [4]: 117 % of control
T/C [5]: 119 % of control

O.[NH-]C(Cc1ccc(O)cc1)C(=O)O.[Ni] (centres undefined)
T/C (dose: 6.25 mg/kg/injection, schedule: Q01DX009 (ip), vehicle: saline): 98 % of control
T/C [1]: 107 % of control
T/C (dose: 25.0 mg/kg/injection, schedule: Q04DX003 (ip), vehicle: saline): 100 % of control

COC(=O)C12OCC34C(CC5C(C)=C(O)C(=O)CC5(C)C3C(O)C1O)OC(=O)C(OC(=O)/C=C(\C)C(C)(C)O)C24 (centres undefined)
T/C (dose: 0.2 mg/kg/injection, schedule: Q01DX009 (ip), vehicle: saline): 165 % of control
T/C (dose: 0.4 mg/kg/injection, schedule: Q01DX009 (ip), vehicle: saline): 165 % of control
T/C (dose: 0.8 mg/kg/injection, schedule: Q01DX009 (ip), vehicle: saline): 163 % of control
T/C (dose: 60.0 micrograms/kg/injection, schedule: Q01DX009 (ip), vehicle: saline + alcohol): 183 % of control
T/C (dose: 120.0 micrograms/kg/injection, schedule: Q01DX009 (ip), vehicle: saline + alcohol): 183 % of control
T/C (dose: 250.0 micrograms/kg/injection, schedule: Q01DX009 (ip), vehicle: saline + alcohol): 200 % of control
T/C (dose: 500.0 micrograms/kg/injection, schedule: Q01DX009 (ip), vehicle: saline + alcohol): 211 % of control
T/C (dose: 1000.0 micrograms/kg/injection, schedule: Q01DX009 (ip), vehicle: saline + alcohol): 238 % of control
T/C (dose: 2000.0 micrograms/kg/injection, schedule: Q01DX009 (ip), vehicle: saline + alcohol): 194 % of control

O=C(/C=C/c1ccc(OCc2ccccc2)cc1)c1ccccc1F
T/C [4]: 96 % of control
T/C [5]: 100 % of control
T/C (dose: 200.0 mg/kg/injection, schedule: Q01DX009 (ip), vehicle: saline with Tween-80): 96 % of control

Cc1c2cnccc2c(C)c2c1c1ccccc1n2CCNCCO
T/C (dose: 0.44 mg/kg/injection, schedule: Q04DX003 (ip), vehicle: saline): 118 % of control
T/C (dose: 1.5 mg/kg/injection, schedule: Q04DX003 (ip), vehicle: saline): 109 % of control
T/C (dose: 100.0 mg/kg/injection, schedule: Q04DX003 (ip), vehicle: saline with Tween-80): 118 % of control
T/C (dose: 150.0 mg/kg/injection, schedule: Q04DX003 (ip), vehicle: saline with Tween-80): 90 % of control

NC(N)=NCCCCCCC(=O)Nc1ccc(S(N)(=O)=O)cc1
T/C (dose: 25.0 mg/kg/injection, schedule: Q01DX009 (ip), vehicle: saline with Tween-80): 112 % of control
T/C [4]: 106 % of control
T/C [5]: 97 % of control

CCOC(=O)c1cnc2c(OC)cccc2c1Cl
T/C (dose: 4.0 mg/kg/injection, schedule: Q01DX009 (ip), vehicle: saline): 86 % of control
T/C (dose: 8.0 mg/kg/injection, schedule: Q01DX009 (ip), vehicle: saline): 91 % of control
T/C (dose: 16.0 mg/kg/injection, schedule: Q01DX009 (ip), vehicle: saline): 106 % of control
T/C [2]: 120 % of control
T/C [3]: 113 % of control
T/C (dose: 50.0 mg/kg/injection, schedule: Q04DX003 (ip), vehicle: saline): 96 % of control
T/C (dose: 100.0 mg/kg/injection, schedule: Q01DX009 (ip), vehicle: saline): 111 % of control
T/C (dose: 100.0 mg/kg/injection, schedule: Q04DX003 (ip), vehicle: saline): 96 % of control
T/C (dose: 200.0 mg/kg/injection, schedule: Q01DX009 (ip), vehicle: saline): 113 % of control
T/C (dose: 200.0 mg/kg/injection, schedule: Q04DX003 (ip), vehicle: saline): 97 % of control
T/C (dose: 400.0 mg/kg/injection, schedule: Q01DX009 (ip), vehicle: saline): 113 % of control
T/C (dose: 400.0 mg/kg/injection, schedule: Q04DX003 (ip), vehicle: saline): 90 % of control

— PubChem BioAssay AID328 (DTP/NCI, 2004)
